# Laboratory results: the supplement of paper PMC11208160
# Assay: recombinant UMI read abundance after kanamycin selection (control-corrected) (log10(CPM+1)); higher = more efficient recombination; extreme values may be limits of the assay; sequences stand for … in AGTGCAGAGAAAATCGGCCAGTTTTCTCTGCCTGCAGTCCGCATGCCGTGGGACCCCTTGGGTTCTAACCTGTTGCCTAGATTTATGCAGCGGACTGCCTTTCTCCCAAAGTGATAAACCGG…AGGTTGGTTTCACT; site = the 11-nt donor
# Outline: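 Pooled Escherichia coli screen of donor and donor-binding-loop pairs for the IS621 bridge recombinase. Each pair sits with a 12-nt UMI on a plasmid carrying a promoterless kanamycin gene. The library was co-electroporated with a target plasmid encoding a fixed target and T7-inducible recombinase, then plated with IPTG (0.07 mM) plus kanamycin, or unselected, each in two replicates. Recombinant UMIs were PCR-amplified across the donor–target junction and sequenced. Counts became CPM, averaged over replicates, scaled by control-derived factors and reported as log10(CPM+1).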
row,Sequence,recombinant UMI read abundance (log10)
1,CGATCATCATGGACCGGTTTTCCCGGTAATCCGTATTTGCG (site CGATCATCTGG),0
2,CGATCATCATGGACCGGTTTTCCCGGTAATCCGTATTTGCG (site CGATCATCTTG),0.00387
3,CGATCCCCATGGACCGGTTTTCCCGGTAATCCGTATTTGGG (site CGATCCCCTCC),0.00829
4,CGATCCTCATGGACCGGTTTTCCCGGTAATCCGTATTTGGT (site CGATCATCTAG),0
5,CGATCCTCATGGACCGGTTTTCCCGGTAATCCGTATTTGGT (site CGATCCTCTAC),1.74
6,CGATCGACATGGACCGGTTTTCCCGGTAATCCGTATTTGGT (site CGATCGACTAA),0.276
7,CGATCGACATGGACCGGTTTTCCCGGTAATCCGTATTTGGT (site CGATCGACTAC),0.733
8,CGATCGACATGGACCGGTTTTCCCGGTAATCCGTATTTGGT (site CGATCGACTAG),0
9,CGATCGACATGGACCGGTTTTCCCGGTAATCCGTATTTGGT (site CGATCGACTAT),1.46
10,CGATCGACATGGACCGGTTTTCCCGGTAATCCGTATTTGTA (site CGATCGACTAA),0
11,CGATCGACATGGACCGGTTTTCCCGGTAATCCGTATTTGTA (site CGATCGACTCA),0.0107
12,CGATCGACATGGACCGGTTTTCCCGGTAATCCGTATTTGTA (site CGATCGACTGA),0
13,CGATCGACATGGACCGGTTTTCCCGGTAATCCGTATTTGTA (site CGATCGACTTA),1.19
14,CGATCGTCATGGACCGGTTTTCCCGGTAATCCGTATTTGAT (site CGATCATCTAG),0.00648
15,CGATCGTCATGGACCGGTTTTCCCGGTAATCCGTATTTGAT (site CGATCGTCTAT),0.972
16,CGATGATCATGGACCGGTTTTCCCGGTAATCCGTATTTGAG (site CGATGATCTCT),3.16
17,CGATGATCATGGACCGGTTTTCCCGGTAATCCGTATTTGCC (site CGATCATCTAG),0
18,CGATGATCATGGACCGGTTTTCCCGGTAATCCGTATTTGCC (site CGATGATCTGG),2
19,CGATGCGCATGGACCGGTTTTCCCGGTAATCCGTATTTGAT (site CGATGCGCTAT),2.43
20,CGATGCTCATGGACCGGTTTTCCCGGTAATCCGTATTTGAA (site CAATGCTCTTT),0.249
21,CGATGCTCATGGACCGGTTTTCCCGGTAATCCGTATTTGAA (site CCATGCTCTTT),0.00345
22,CGATGCTCATGGACCGGTTTTCCCGGTAATCCGTATTTGAA (site CGATGCTCTTT),2.6
23,CGATGCTCATGGACCGGTTTTCCCGGTAATCCGTATTTGAA (site CTATGCTCTTT),0.0185
24,CGATGTCCATGGACCGGTTTTCCCGGTAATCCGTATTTGGA (site CGATGTCCTTC),0.0178
25,CGATTCGCATGGACCGGTTTTCCCGGTAATCCGTATTTGCT (site CGATTCGCTAG),2.12
26,CGATTGACATGGACCGGTTTTCCCGGTAATCCGTATTTGTT (site CGATAGACTAA),0.0285

row,Sequence,recombinant UMI read abundance (log10)
1,CGATTGACATGGACCGGTTTTCCCGGTAATCCGTATTTGTT (site CGATCGACTAA),0.016
2,CGATTGACATGGACCGGTTTTCCCGGTAATCCGTATTTGTT (site CGATGGACTAA),0.00746
3,CGATTGACATGGACCGGTTTTCCCGGTAATCCGTATTTGTT (site CGATTGACTAA),1.24
4,CGATTTTCATGGACCGGTTTTCCCGGTAATCCGTATTTGCT (site CGATCATCTAG),0
5,CGATTTTCATGGACCGGTTTTCCCGGTAATCCGTATTTGCT (site CGATTTTCTAG),1.29
6,CGCAAGACATGGACCGGTTTTCCCGGTAATCCGTATTTGCA (site CGCAAGACTTG),1.79
7,CGCAATACATGGACCGGTTTTCCCGGTAATCCGTATTTGGT (site CGCAATACTAC),1.25
8,CGCAATCCATGGACCGGTTTTCCCGGTAATCCGTATTTGTT (site CGAAATCCTAA),0.00301
9,CGCAATCCATGGACCGGTTTTCCCGGTAATCCGTATTTGTT (site CGCAATCCTAA),0.698
10,CGCAATCCATGGACCGGTTTTCCCGGTAATCCGTATTTGTT (site CGGAATCCTAA),0
11,CGCAATCCATGGACCGGTTTTCCCGGTAATCCGTATTTGTT (site CGTAATCCTAA),0
12,CGCACCCCATGGACCGGTTTTCCCGGTAATCCGTATTTGAC (site CGCACCCCTGT),1.43
13,CGCACGACATGGACCGGTTTTCCCGGTAATCCGTATTTGCC (site CGCACGACTGG),1.95
14,CGCAGAACATGGACCGGTTTTCCCGGTAATCCGTATTTGCA (site CGCAGAACTTG),1.37
15,CGCAGAACATGGACCGGTTTTCCCGGTAATCCGTATTTGTA (site CGCAGAACTTA),2.19
16,CGCATCCCATGGACCGGTTTTCCCGGTAATCCGTATTTGGC (site CGCATCCCTGC),1.75
17,CGCATTTCATGGACCGGTTTTCCCGGTAATCCGTATTTGCC (site CGCATTTCTGG),0
18,CGCCACCCATGGACCGGTTTTCCCGGTAATCCGTATTTGTT (site AGCCACCCTAA),0.00879
19,CGCCACCCATGGACCGGTTTTCCCGGTAATCCGTATTTGTT (site CGCCACCCTAA),0.0407
20,CGCCACCCATGGACCGGTTTTCCCGGTAATCCGTATTTGTT (site GGCCACCCTAA),0.0241
21,CGCCACCCATGGACCGGTTTTCCCGGTAATCCGTATTTGTT (site TGCCACCCTAA),0.00618
22,CGCCAGACATGGACCGGTTTTCCCGGTAATCCGTATTTGCC (site CGCCAGACTGG),1.38
23,CGCCATCCATGGACCGGTTTTCCCGGTAATCCGTATTTGTT (site CGCCATCCTAA),0.44
24,CGCCATCCATGGACCGGTTTTCCCGGTAATCCGTATTTGTT (site CGGAATCCTAA),0
25,CGCCATGCATGGACCGGTTTTCCCGGTAATCCGTATTTGAC (site CGCCATGCTGT),1.6
26,CGCCGTACATGGACCGGTTTTCCCGGTAATCCGTATTTGCA (site CGCCGTACTAG),0.00535
